Strand notation (5' to 3'): a small letter for the sugar, then the base; units joined by * are phosphorothioate-linked, units joined directly phosphodiester-linked; [ ] holds rarer units or linkages, { } end groups; capitals alone tell only the bases. e = 2'-O-(2-methoxyethyl) (MOE); [5mC] = 5-methylcytosine; d = 2'-deoxy (DNA)
Test system: human SMAD7 mRNA
Test: Antisense inhibition of human SMAD7 mRNA expression in Hep3B cells by 5-10-5 MOE gapmers, single concentration, electroporation, RT-PCR (Example 1, Study 1 and 2)
Type: cell-based
Method: Antisense oligonucleotides were designed to target human SMAD7 mRNA and were tested for their effects on SMAD7 mRNA expression in vitro. Cultured Hep3B cells at a density of 20,000 cells per well were transfected using electroporation with antisense oligonucleotide ION 483663 (a 5-10-5 MOE gapmer), the sequence of which overlaps with ION 28453 (a 4-10-4 MOE gapmer) was included in these assays for comparison. ION 28453 has been previously disclosed in U.S. Pat. No. 6,159,697). After a treatment period of approximately 24 hours, RNA was isolated from the cells and SMAD7 mRNA levels were measured by quantitative real-time PCR. Primer probe set RTS5062 (forward sequence […], designated herein as SEQ ID NO: 11; reverse sequence […], designated herein as SEQ ID NO: 12; probe sequence […], designated herein as SEQ ID NO: 13) was used to measure human SMAD7 mRNA levels. SMAD7 mRNA levels were adjusted according to total RNA content, as measured by RIBOGREEN®. Results are presented as percent inhibition of SMAD7 mRNA expression, relative to untreated control cells.
The newly designed chimeric antisense oligonucleotides in the Tables below were designed as 5-10-5 MOE gapmers. The gapmers are 20 nucleosides in length, wherein the central gap segment comprises of ten 2′-deoxynucleosides and is flanked by wing segments on the 5′ direction and the 3′ direction comprising five nucleosides each. Each nucleoside in the 5′ wing segment and each nucleoside in the 3′ wing segment has a 2′-MOE modification. The internucleoside linkages throughout each gapmer are phosphorothioate (P═S) linkages. All cytosine residues throughout each gapmer are 5-methylcytosines.
“Start site” indicates the 5′-most nucleoside to which the gapmer is targeted in the human gene sequence. “Stop site” indicates the 3′-most nucleoside to which the gapmer is targeted human gene sequence.
Cultured Hep3B cells at a density of 20,000 cells per well were transfected using electroporation with 5,000 nM antisense oligonucleotide.
Cultured Hep3B cells at a density of 20,000 cells per well were transfected using electroporation with 15,000 nM antisense oligonucleotide. The antisense oligonucleotides were tested in a series of experiments that had similar culture conditions as described below.
Some of the oligonucleotides presented were complementary to SMAD7 mRNA sequences RefSeqNo. NM_001190821.1 (designated herein as SEQ ID NO: 3) or RefSeqNo. NM_001190822.1 (designated herein as SEQ ID NO: 4), and are presented in a separate table shown below.

[1] = electroporation, 15,000 nM antisense oligonucleotide (Study 2), 5-10-5 MOE gapmers targeting SEQ ID NO: 1 and 2
[2] = Study 2, electroporation with 15,000 nM antisense oligonucleotide, 5-10-5 MOE gapmers targeting SEQ ID NO: 1 and 2
[3] = electroporation, 5,000 nM, approximately 24 hours, relative to untreated control cells, gapmers targeting SEQ ID NO: 1 and 2
[4] = electroporation with 15,000 nM antisense oligonucleotide (Study 2), 5-10-5 MOE gapmers targeting SEQ ID NO: 1 and 2
[5] = electroporation, 15,000 nM, approximately 24 hours, gapmers targeting SEQ ID NO: 3 and 4
[6] = electroporation, 15,000 nM, approximately 24 hours, relative to untreated control cells, gapmers targeting SEQ ID NO: 1 and 2

Row | Substance | % inhibition of SMAD7 mRNA expression [1] [%] | % Inhibition [2] [%] | further results
1 | 483664 (antisense eT*eG*e[5mC]*eT*e[5mC]*dA*dG*d[5mC]*dT*d[5mC]*dA*d[5mC]*dG*d[5mC]*dT*e[5mC]*eT*eG*eT*e[5mC]) [compound 483664] | 36 | – | –
2 | 483665 (antisense eG*e[5mC]*eG*eA*eA*d[5mC]*dA*dT*dG*dA*d[5mC]*d[5mC]*dT*d[5mC]*d[5mC]*eG*e[5mC]*eA*e[5mC]*eA) [compound 483665] | – | 55 | % inhibition of SMAD7 mRNA expression [3]: 10%
3 | 582468 (antisense eG*e[5mC]*e[5mC]*eA*eA*dT*dA*dT*d[5mC]*dA*dT*dA*dA*d[5mC]*d[5mC]*e[5mC]*eA*eA*eG*e[5mC]) [compound 582468] | – | – | % inhibition of SMAD7 mRNA expression [2]: 4%; % inhibition of SMAD7 mRNA expression [4]: 0%
4 | 771342 (antisense eT*e[5mC]*eA*eG*eT*dT*dG*dG*dT*dT*dT*dG*dA*dG*dA*eA*eA*eA*eT*e[5mC]) [compound 771342] | – | – | % inhibition of SMAD7 mRNA expression [5]: 35%
5 | 771343 (antisense eG*eA*e[5mC]*eA*eG*dT*d[5mC]*dA*dG*dT*dT*dG*dG*dT*dT*eT*eG*eA*eG*eA) [compound 771343] | – | – | % inhibition of SMAD7 mRNA expression [5]: 0%
6 | 771344 (antisense eA*eT*e[5mC]*eT*eG*dG*dA*d[5mC]*dA*dG*dT*d[5mC]*dA*dG*dT*eT*eG*eG*eT*eT) [compound 771344] | – | – | % inhibition of SMAD7 mRNA expression [5]: 17%
7 | 771346 (antisense e[5mC]*eG*eT*eG*eA*dT*dT*d[5mC]*dT*d[5mC]*d[5mC]*dG*dT*dA*dT*eT*eT*eA*e[5mC]*eT) [compound 771346] | – | 22 | –
8 | 771347 (antisense eT*eG*eG*eG*e[5mC]*d[5mC]*dA*d[5mC]*dT*dG*dG*dT*dG*dT*dT*e[5mC]*eG*eA*e[5mC]*eG) [compound 771347] | 0 | – | % Inhibition of SMAD7 mRNA [4]: 32%
9 | 771348 (antisense eG*eG*e[5mC]*e[5mC]*eA*d[5mC]*dG*dA*d[5mC]*dA*dG*dT*dA*dT*d[5mC]*eT*eG*eG*eG*e[5mC]) [compound 771348] | 42 | – | –
10 | 771349 (antisense eA*e[5mC]*eT*e[5mC]*e[5mC]*dA*dA*dA*dG*dG*dT*dG*d[5mC]*dG*d[5mC]*eG*eG*e[5mC]*e[5mC]*eA) [compound 771349] | 26 | – | –
11 | 771350 (antisense eT*eT*eT*eG*e[5mC]*d[5mC]*d[5mC]*d[5mC]*dA*dA*dA*dA*d[5mC]*dT*d[5mC]*e[5mC]*eA*eA*eA*eG) [compound 771350] | – | 28 | % inhibition of SMAD7 mRNA expression [3]: 68%
12 | 771351 (antisense e[5mC]*eT*e[5mC]*eT*e[5mC]*dT*dT*dT*dG*d[5mC]*d[5mC]*d[5mC]*d[5mC]*dA*dA*eA*eA*e[5mC]*eT*e[5mC]) [compound 771351] | – | 11 | –
13 | 771352 (antisense eT*e[5mC]*e[5mC]*eA*eA*d[5mC]*dT*d[5mC]*dT*d[5mC]*dT*dT*dT*dG*d[5mC]*e[5mC]*e[5mC]*e[5mC]*eA*eA) [compound 771352] | – | – | % inhibition of SMAD7 mRNA expression [6]: 54%
14 | 771353 (antisense eT*eT*e[5mC]*e[5mC]*eA*dT*d[5mC]*d[5mC]*dA*dA*d[5mC]*dT*d[5mC]*dT*d[5mC]*eT*eT*eT*eG*e[5mC]) [compound 771353] | – | 0 | –
15 | 771354 (antisense e[5mC]*eG*eG*e[5mC]*e[5mC]*dT*dT*d[5mC]*d[5mC]*dA*dT*d[5mC]*d[5mC]*dA*dA*e[5mC]*eT*e[5mC]*eT*e[5mC]) [compound 771354] | – | 39 | –
16 | 771355 (antisense e[5mC]*eA*eG*eT*eT*d[5mC]*dG*dG*d[5mC]*d[5mC]*dT*dT*d[5mC]*d[5mC]*dA*eT*e[5mC]*e[5mC]*eA*eA) [compound 771355] | 0 | – | % Inhibition of SMAD7 mRNA [4]: 13%
17 | 771356 (antisense eT*e[5mC]*e[5mC]*eA*eG*dT*dT*d[5mC]*dG*dG*d[5mC]*d[5mC]*dT*dT*d[5mC]*e[5mC]*eA*eT*e[5mC]*e[5mC]) [compound 771356] | – | – | % inhibition of SMAD7 mRNA expression [5]: 40%
18 | 771357 (antisense eG*eA*eG*eT*e[5mC]*dA*dG*dG*d[5mC]*dT*d[5mC]*dA*dA*dT*dG*eA*eG*eA*e[5mC]*eT) [compound 771357] | 16 | – | –

Row | Substance | % inhibition of SMAD7 mRNA expression [1] [%] | % Inhibition [2] [%] | further results
19 | 771358 (antisense eA*eG*eT*eT*eA*dA*dT*d[5mC]*dA*dT*dT*dA*d[5mC]*dT*d[5mC]*eG*eA*eG*eT*e[5mC]) [compound 771358] | – | 36 | % inhibition of SMAD7 mRNA expression [3]: 53%
20 | 771359 (antisense eG*eT*e[5mC]*eA*e[5mC]*d[5mC]*d[5mC]*dG*dT*d[5mC]*dT*dG*dG*dG*d[5mC]*eT*e[5mC]*e[5mC]*eG*eG) [compound 771359] | – | 15 | –
21 | 771360 (antisense eA*e[5mC]*e[5mC]*eT*eT*dG*dT*d[5mC]*dA*d[5mC]*d[5mC]*d[5mC]*dG*dT*d[5mC]*eT*eG*eG*eG*e[5mC]) [compound 771360] | – | – | % inhibition of SMAD7 mRNA expression [6]: 49%
22 | 771361 (antisense eA*e[5mC]*eA*eG*e[5mC]*dA*d[5mC]*d[5mC]*dT*dT*dG*dT*d[5mC]*dA*d[5mC]*e[5mC]*e[5mC]*eG*eT*e[5mC]) [compound 771361] | – | 27 | –
23 | 771362 (antisense eG*eT*eA*eA*eG*dA*d[5mC]*dA*dG*dA*d[5mC]*d[5mC]*dA*d[5mC]*dA*eG*e[5mC]*eA*e[5mC]*e[5mC]) [compound 771362] | – | 15 | –
24 | 771363 (antisense eT*e[5mC]*eA*eG*eG*d[5mC]*dT*dT*d[5mC]*dA*d[5mC]*dT*dG*d[5mC]*d[5mC]*e[5mC]*eA*eT*e[5mC]*eG) [compound 771363] | 12 | – | % Inhibition of SMAD7 mRNA [4]: 35%
25 | 771364 (antisense eT*eA*eA*eT*eG*dG*dT*d[5mC]*dT*dG*d[5mC]*dT*d[5mC]*dA*dG*eG*e[5mC]*eT*eT*e[5mC]) [compound 771364] | 23 | – | –
26 | 771365 (antisense eA*eT*eT*eA*eT*dT*dA*dA*dT*dG*dG*dT*d[5mC]*dT*dG*e[5mC]*eT*e[5mC]*eA*eG) [compound 771365] | 5 | – | –
27 | 771366 (antisense eT*eG*e[5mC]*eT*eG*dA*dT*dT*dA*dT*dT*dA*dA*dT*dG*eG*eT*e[5mC]*eT*eG) [compound 771366] | – | 0 | % inhibition of SMAD7 mRNA expression [3]: 49%
28 | 771367 (antisense e[5mC]*eT*eT*eG*eA*dT*dG*d[5mC]*dT*dG*dA*dT*dT*dA*dT*eT*eA*eA*eT*eG) [compound 771367] | – | 0 | –
29 | 771368 (antisense e[5mC]*eG*eG*e[5mC]*e[5mC]*dT*dT*dG*dA*dT*dG*d[5mC]*dT*dG*dA*eT*eT*eA*eT*eT) [compound 771368] | – | – | % inhibition of SMAD7 mRNA expression [6]: 27%
30 | 771369 (antisense e[5mC]*eA*eA*eA*eA*dG*dG*d[5mC]*dT*dG*dA*d[5mC]*dT*d[5mC]*dG*e[5mC]*eG*eG*e[5mC]*e[5mC]) [compound 771369] | – | 22 | –
31 | 771370 (antisense e[5mC]*eA*eT*eT*e[5mC]*d[5mC]*dA*dA*dA*dA*dG*dG*d[5mC]*dT*dG*eA*e[5mC]*eT*e[5mC]*eG) [compound 771370] | – | 18 | –
32 | 771372 (antisense eA*e[5mC]*eA*eA*eA*d[5mC]*d[5mC]*dA*d[5mC]*dA*d[5mC]*dA*dT*dT*d[5mC]*e[5mC]*eA*eA*eA*eA) [compound 771372] | 37 | – | –
33 | 771373 (antisense eG*eA*eA*eA*eG*dA*d[5mC]*dA*dA*dA*d[5mC]*d[5mC]*dA*d[5mC]*dA*e[5mC]*eA*eT*eT*e[5mC]) [compound 771373] | 32 | – | –
34 | 771374 (antisense eA*eG*e[5mC]*eA*eT*dG*dA*dA*dA*dG*dA*d[5mC]*dA*dA*dA*e[5mC]*e[5mC]*eA*e[5mC]*eA) [compound 771374] | – | 51 | % inhibition of SMAD7 mRNA expression [3]: 44%
35 | 771375 (antisense e[5mC]*eT*eA*eA*eA*d[5mC]*dA*dG*d[5mC]*dA*dT*dG*dA*dA*dA*eG*eA*e[5mC]*eA*eA) [compound 771375] | – | 4 | –
36 | 771376 (antisense eA*e[5mC]*eG*e[5mC]*eT*d[5mC]*dT*dA*dA*dA*d[5mC]*dA*dG*d[5mC]*dA*eT*eG*eA*eA*eA) [compound 771376] | – | – | % inhibition of SMAD7 mRNA expression [6]: 17%
